Values after ≈ are worked out from the molar mass of the structure shown.
Tested on: not listed separately
Assay: Clearance in rat at 0.5 mg/kg, iv
Type: ADME, organism-based
Details: in vivo

**Q.** Which clearance does the source give for CNC(=O)Nc1cc(Oc2cncc(C)c2)c(-c2ccc(OCC(C)(C)O)nc2)cn1 here?
**A.** 30 mL/min/kg

Tested on: not listed separately
Assay: AUC in rat at 2 mg/kg, po
Type: ADME, organism-based
Details: in vivo, read-out: AUC

**Q.** Which AUC does the source give for CNC(=O)Nc1cc(Oc2cncc(C)c2)c(-c2ccc(OCC(C)(C)O)nc2)cn1 here?
**A.** 2.7 µM·h

Biological target: T1, Hexokinase-4 (Homo sapiens, UniProt P35557)
T1 sequence (P35557 whole entry): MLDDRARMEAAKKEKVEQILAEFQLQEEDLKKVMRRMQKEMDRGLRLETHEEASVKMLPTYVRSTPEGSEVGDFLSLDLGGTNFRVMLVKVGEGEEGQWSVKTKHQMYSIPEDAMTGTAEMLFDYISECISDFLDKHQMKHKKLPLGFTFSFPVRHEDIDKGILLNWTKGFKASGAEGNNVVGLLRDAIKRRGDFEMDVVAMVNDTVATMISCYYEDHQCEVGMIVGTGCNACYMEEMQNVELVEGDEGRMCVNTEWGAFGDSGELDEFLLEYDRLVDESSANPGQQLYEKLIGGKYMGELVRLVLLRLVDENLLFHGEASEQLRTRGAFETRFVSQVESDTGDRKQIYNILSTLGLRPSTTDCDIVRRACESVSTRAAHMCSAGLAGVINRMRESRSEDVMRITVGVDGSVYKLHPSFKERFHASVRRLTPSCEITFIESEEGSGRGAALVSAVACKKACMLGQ
Assay: Activation of human recombinant glucokinase using 5 mM glucose as substrate in presence of NAD+ by glucose 6-phosphate dehydrogenase coupled assay
Details: not given

**Q.** For CNC(=O)Nc1cc(Oc2cncc(OC)c2)c([C@@H]2CCCN(C)C2)cn1, which EC50 is on record?
**A.** 2.3 µM

**Q.** With CNC(=O)Nc1cc(Oc2cncc(C)c2)c(CCCO)cn1 as the molecule, how does the EC50 read?
**A.** 0.066 µM

**Q.** With CNC(=O)Nc1cc(Oc2cncc(C)c2)c([C@H]2C[C@](C)(O)C2)cn1 as the molecule, how does the EC50 read?
**A.** 0.16 µM

**Q.** With CNC(=O)Nc1cc(Oc2cncc(C)c2)c([C@]2(O)C[C@H](O)C2)cn1 as the molecule, how does the EC50 read?
**A.** 6.7 µM

**Q.** With CNC(=O)Nc1cc(Oc2cncc(C)c2)c([C@H]2C[C@@H](C(C)(C)O)C2)cn1 as the molecule, how does the EC50 read?
**A.** 0.051 µM

**Q.** For CNC(=O)Nc1cc(Oc2cncc(C)c2)c([C@H]2CCC[C@H](O)C2)cn1, which EC50 is on record?
**A.** 0.072 µM

Biological target: T2, Hexokinase-4 (Homo sapiens) (UniProt P35557)
T2 sequence (whole entry): T1 sequence (P35557 whole entry)
Assay: Activation of human recombinant glucokinase assessed as Vmax ratio using 0.16 to 80 mM of glucose as substrate in presence of NAD+ by glucose 6-phosphate dehydrogenase coupled assay relative to control
Details: not given

**Q.** Which Ratio does the source give for CNC(=O)Nc1cc(Oc2cncc(OC)c2)c([C@@H]2CCCN(C)C2)cn1 here?
**A.** 0.78

**Q.** With CNC(=O)Nc1cc(Oc2cncc(C)c2)c(CCCO)cn1 as the molecule, how does the Ratio read?
**A.** 0.96

**Q.** For CNC(=O)Nc1cc(Oc2cncc(C)c2)c([C@H]2C[C@](C)(O)C2)cn1, which Ratio is on record?
**A.** 0.71

**Q.** With CNC(=O)Nc1cc(Oc2cncc(C)c2)c([C@]2(O)C[C@H](O)C2)cn1 as the molecule, how does the Ratio read?
**A.** 0.88

**Q.** With CNC(=O)Nc1cc(Oc2cncc(C)c2)c([C@H]2C[C@@H](C(C)(C)O)C2)cn1 as the molecule, how does the Ratio read?
**A.** 0.54

**Q.** For CNC(=O)Nc1cc(Oc2cncc(C)c2)c([C@H]2CCC[C@H](O)C2)cn1, which Ratio is on record?
**A.** 1

Tested on: not listed separately
Assay: Volume of distribution at steady state in rat at 0.5 mg/kg, iv
Type: ADME, organism-based
Details: in vivo, read-out: Vdss

**Q.** With CNC(=O)Nc1cc(Oc2cncc(C)c2)c(-c2ccc(OCC(C)(C)O)nc2)cn1 as the molecule, how does the Vd read?
**A.** 2.7 L/kg

Biological target: T2, Hexokinase-4 (Homo sapiens)
Assay: Ratio of EC50 for activation of human recombinant glucokinase in presence of 4% HSA to EC50 for activation of human recombinant glucokinase in absence of 4% HSA
Details: not given

**Q.** For CNC(=O)Nc1cc(Oc2cncc(C)c2)c(CCCO)cn1, which Ratio EC50 is on record?
**A.** 1 to 3

Tested on: not listed separately
Assay: Solubility of the compound in PBS at pH 7.4
Type: physicochemical
Details: buffer

**Q.** Which solubility does the source give for CNC(=O)Nc1cc(Oc2cncc(C)c2)c(CCCO)cn1 here?
**A.** 500 µM (≈ 158 µg/mL)

Tested on: not listed separately
Assay: Half life in rat at 0.5 mg/kg, iv
Type: ADME, organism-based
Details: in vivo

**Q.** With CNC(=O)Nc1cc(Oc2cncc(C)c2)c(-c2ccc(OCC(C)(C)O)nc2)cn1 as the molecule, how does the half-life read?
**A.** 2.3 h

Biological target: T1, Hexokinase-4
Assay: Activation of human recombinant glucokinase using 5 mM glucose as substrate in presence of NAD+ and 4% HSA by glucose 6-phosphate dehydrogenase coupled assay
Details: not given

**Q.** With CNC(=O)Nc1cc(Oc2cncc(OC)c2)c([C@@H]2CCCN(C)C2)cn1 as the molecule, how does the EC50 read?
**A.** 2.9 µM

**Q.** For CNC(=O)Nc1cc(Oc2cncc(C)c2)c(CCCO)cn1, which EC50 is on record?
**A.** 0.1 µM

**Q.** Which EC50 does the source give for CNC(=O)Nc1cc(Oc2cncc(C)c2)c([C@H]2C[C@](C)(O)C2)cn1 here?
**A.** 0.3 µM

**Q.** For CNC(=O)Nc1cc(Oc2cncc(C)c2)c([C@]2(O)C[C@H](O)C2)cn1, which EC50 is on record?
**A.** 7.5 µM

**Q.** For CNC(=O)Nc1cc(Oc2cncc(C)c2)c([C@H]2C[C@@H](C(C)(C)O)C2)cn1, which EC50 is on record?
**A.** 0.12 µM

**Q.** With CNC(=O)Nc1cc(Oc2cncc(C)c2)c([C@H]2CCC[C@H](O)C2)cn1 as the molecule, how does the EC50 read?
**A.** 0.097 µM

Biological target: T2, Hexokinase-4 (Homo sapiens)
Assay: Activation of human recombinant glucokinase assessed as enzyme affinity for glucose […] as substrate in presence of NAD+ by glucose 6-phosphate dehydrogenase coupled assay
Details: not given

**Q.** Which S0.5 does the source give for CNC(=O)Nc1cc(Oc2cncc(OC)c2)c([C@@H]2CCCN(C)C2)cn1 here?
**A.** 0.73 mM

**Q.** With CNC(=O)Nc1cc(Oc2cncc(C)c2)c(CCCO)cn1 as the molecule, how does the S0.5 read?
**A.** 0.55 mM

**Q.** With CNC(=O)Nc1cc(Oc2cncc(C)c2)c([C@H]2C[C@](C)(O)C2)cn1 as the molecule, how does the S0.5 read?
**A.** 0.7 mM

**Q.** For CNC(=O)Nc1cc(Oc2cncc(C)c2)c([C@]2(O)C[C@H](O)C2)cn1, which S0.5 is on record?
**A.** 0.67 mM

**Q.** For CNC(=O)Nc1cc(Oc2cncc(C)c2)c([C@H]2C[C@@H](C(C)(C)O)C2)cn1, which S0.5 is on record?
**A.** 0.68 mM

**Q.** Which S0.5 does the source give for CNC(=O)Nc1cc(Oc2cncc(C)c2)c([C@H]2CCC[C@H](O)C2)cn1 here?
**A.** 0.51 mM

Reference: ChEMBL document CHEMBL4425164, “5-Alkyl-2-urea-Substituted Pyridines: Identification of Efficacious Glucokinase Activators with Improved Properties” (ACS Med Chem Lett, 2016)
